Data as given in publication PMC2673211, “Nitric oxide activates ATP-sensitive potassium channels in mammalian sensory neurons: action by direct S-nitrosylation” (Molecular Pain, 2009).

Biological target: T1, KATP channels in large DRG neurons (Rattus norvegicus, UniProt P70673+Q09429)
T1 construct: native KATP channels in large DRG neurons; endogenous in cells; host or cells: acutely dissociated large-diameter neurons from rat L4/L5 dorsal root ganglia (sham-operated or spinal nerve ligated animals)
T1 sequence (Q09429 whole entry): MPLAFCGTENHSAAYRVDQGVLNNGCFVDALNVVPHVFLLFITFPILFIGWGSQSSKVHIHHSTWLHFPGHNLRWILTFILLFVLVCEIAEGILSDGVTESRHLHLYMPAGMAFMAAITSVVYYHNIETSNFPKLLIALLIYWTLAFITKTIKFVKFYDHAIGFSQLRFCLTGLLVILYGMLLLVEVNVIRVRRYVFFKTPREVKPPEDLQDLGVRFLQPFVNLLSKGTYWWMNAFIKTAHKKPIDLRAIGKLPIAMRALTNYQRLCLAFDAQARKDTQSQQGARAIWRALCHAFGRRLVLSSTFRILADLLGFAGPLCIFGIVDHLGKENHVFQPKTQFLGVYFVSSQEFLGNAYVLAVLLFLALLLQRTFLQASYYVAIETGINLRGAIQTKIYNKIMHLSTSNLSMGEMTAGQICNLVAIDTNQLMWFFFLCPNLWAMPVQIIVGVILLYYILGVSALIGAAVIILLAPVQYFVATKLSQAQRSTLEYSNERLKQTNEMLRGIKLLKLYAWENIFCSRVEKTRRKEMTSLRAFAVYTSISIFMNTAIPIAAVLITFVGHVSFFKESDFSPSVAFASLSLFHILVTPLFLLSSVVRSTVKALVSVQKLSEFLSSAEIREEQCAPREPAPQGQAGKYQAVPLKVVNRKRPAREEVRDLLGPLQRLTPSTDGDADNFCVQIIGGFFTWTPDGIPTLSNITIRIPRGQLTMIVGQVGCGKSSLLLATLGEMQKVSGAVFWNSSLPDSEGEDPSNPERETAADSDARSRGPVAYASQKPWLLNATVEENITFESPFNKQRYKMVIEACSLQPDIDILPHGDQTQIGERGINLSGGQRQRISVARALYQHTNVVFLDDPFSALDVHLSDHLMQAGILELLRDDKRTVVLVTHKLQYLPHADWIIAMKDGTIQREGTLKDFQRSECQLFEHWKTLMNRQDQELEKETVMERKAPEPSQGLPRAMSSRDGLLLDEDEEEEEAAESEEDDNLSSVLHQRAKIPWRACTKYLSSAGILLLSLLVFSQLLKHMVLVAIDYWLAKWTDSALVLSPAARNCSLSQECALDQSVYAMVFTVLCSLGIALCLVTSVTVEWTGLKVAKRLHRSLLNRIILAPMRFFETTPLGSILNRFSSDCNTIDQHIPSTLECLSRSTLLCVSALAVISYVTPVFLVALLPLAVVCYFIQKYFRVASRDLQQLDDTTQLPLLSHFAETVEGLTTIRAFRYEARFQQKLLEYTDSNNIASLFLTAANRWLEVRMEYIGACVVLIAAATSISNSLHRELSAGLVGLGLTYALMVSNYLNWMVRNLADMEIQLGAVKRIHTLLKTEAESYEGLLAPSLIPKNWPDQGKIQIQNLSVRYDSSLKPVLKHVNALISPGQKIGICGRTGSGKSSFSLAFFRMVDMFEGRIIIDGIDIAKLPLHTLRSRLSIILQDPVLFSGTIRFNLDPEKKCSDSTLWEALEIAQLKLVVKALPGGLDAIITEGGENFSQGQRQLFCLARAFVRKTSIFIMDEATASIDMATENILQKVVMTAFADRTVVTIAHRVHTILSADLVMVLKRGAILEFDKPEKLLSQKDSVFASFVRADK
T1 sequence (P70673 whole entry): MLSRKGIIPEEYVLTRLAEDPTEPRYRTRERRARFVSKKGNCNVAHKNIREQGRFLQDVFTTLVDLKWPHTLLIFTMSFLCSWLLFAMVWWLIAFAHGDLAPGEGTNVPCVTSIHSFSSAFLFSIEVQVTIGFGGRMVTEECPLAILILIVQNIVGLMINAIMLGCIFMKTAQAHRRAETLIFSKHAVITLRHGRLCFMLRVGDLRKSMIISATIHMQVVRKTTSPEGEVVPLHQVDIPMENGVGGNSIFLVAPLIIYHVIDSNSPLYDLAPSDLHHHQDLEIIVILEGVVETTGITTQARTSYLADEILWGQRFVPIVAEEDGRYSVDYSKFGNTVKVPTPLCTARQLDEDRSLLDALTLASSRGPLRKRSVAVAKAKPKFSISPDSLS
Test: Cell-attached single-channel patch-clamp recording of KATP channel activity (NPo)
Format: cell-based
Details: for NPo steady-state value 10 minutes after application of SNAP: SNAP 100 μM, n = 7
Description: We harvested control (L4 and L5) or axotomized (L5) ganglia, from control (SS) or hyperalgesic rats (SNL) respectively, between the 17th and 28th postoperative days. We sacrificed animals by decapitation under deep isoflurane anesthesia, excised ganglia through a lumbar incision, and at the same time confirmed accuracy of initial surgery.
For patch-clamp recordings, we placed excised DRG into separate 35 mm Petri dishes containing cold, oxygenated, Hanks Balanced Salt Solution (Gibko, Invitrogen, Grand Islan, NY), and minced them with iris scissors. We dissociated ganglia enzymatically in a solution containing 0.25 ml 0.05% w:v liberase blendzyme 2 (Roche Diagnostics Corp., Indianapolis, IN) and 0.25 ml DMEM/F12 with glutaMAX (Dulbecco's modified Eagle's medium F12; Gibco, Invitrogen Corp., Carlsbad, CA) in an incubator at 37°C for 30 min. […] Finally, we plated cells onto poly-l-lysine-coated 12-mm glass coverslips (Deutsche Spiegelglas; Carolina Biologic Supply, Burlington, NC), kept them in a humidified incubator at 37°C with 95% air and 5% CO2, and studied them within 3–8 h of dissociation.
We visualized plated neurons using an inverted Nikon Diaphot 300 microscope with Hoffman modulation optic system. […] Large neuronal somata, roughly correspond to large, myelinated Aβ fibers.
We recorded current passing through single channels in inside-out or cell-attached patch configurations. In cell-attached patches, both bath and pipette (extracellular) solutions were composed of the following: 140 mM KCl, 10 mM HEPES, 5.5 mM dextrose, and 1 mM EGTA. In inside-out patches, the bath (intracellular) solution contained 140 mM KCl, 1.2 mM MgCl2, 10 mM HEPES, 1.5 mM EGTA and 5.5 mM dextrose. The pipette (extracellular) solution was of the same composition as that used in cell-attached recordings. The pH of all solutions was adjusted to 7.4 with KOH. Osmolality was adjusted approximately to 300 mOsm/l by adding sucrose if necessary. We pulled patch micropipettes from borosilicate glass capillaries using a Flaming/Brown micropipette puller, model P-97 (Sutter, San Rafael, CA) and flame polished them with a microforge polisher (Narishige, Tokyo, Japan) prior to use. Their resistance ranged between 3 and 6 MΩ when filled with the internal solution, and placed into the recording solutions.
Sampling frequency of single-channel data was 5 KHz with a low-pass filter (1 KHz). […] We applied a conventional 50% current amplitude threshold level criterion to determine open events. Channel open probability (Po) was determined from the ratios of the area under the peaks in the amplitude histograms fitted by a Gaussian distribution. We calculated channel activity as NPo (where N is the number of observed channels in the patch) from data samples of either 30 s (in inside-out recordings), or 60 s (in cell-attached recordings), in the steady state. In inside-out recordings, NPo of the KATP channels was normalized to the baseline NPo value obtained before test drugs at bathing solution without ATP (indicating relative channel activity).

## S-nitroso-N-acetylpenicillamine [SNAP]
SNAP, data not shown
  washout period after which effects were reversible: 2 to 5 min
SNL neurons
  NPo steady-state value 10 minutes after application of SNAP: 0.31 ± 0.09
SS and SNL neurons
  concentration at which KATP channel activation reaches a saturating plateau: ≥ 100 µM
SS neurons
  NPo steady-state value 10 minutes after application of SNAP: 0.27 ± 0.07
